Legend:
bermudagrass = test: Test C pre-/postemergence herbicide test; assay type: in vivo, Cynodon dactylon
Outline: (§1)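 Pre- and postemergence application, solvent/surfactant formulation; post at 1- to 4-leaf stage (2–18 cm). Greenhouse 12–14 d. Visual rating vs controls, 0 = no effect, 100 = complete control.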

large crabgrass = test: Test C pre-/postemergence herbicide test; assay type: in vivo, Digitaria sanguinalis; details: preemergence
Outline: as §1

giant foxtail = test: Test C pre-/postemergence herbicide test; assay type: in vivo, Setaria faberi; details: preemergence
Outline: as §1

kochia = test: Test C pre-/postemergence herbicide test; assay type: in vivo, Kochia scoparia; details: preemergence
Outline: as §1

lambsquarters = test: Test C pre-/postemergence herbicide test; assay type: in vivo, Chenopodium album; details: preemergence
Outline: as §1

soybean = test: Test C pre-/postemergence herbicide test; assay type: in vivo, Glycine max; details: preemergence
Outline: as §1

[1] = tested on: common (oilseed) sunflower; test: Test C pre-/postemergence herbicide test; assay type: in vivo, Helianthus annuus; details: preemergence
Outline: as §1

rice = test: Test C flooded paddy test; assay type: in vivo, Oryza sativa; details: for Plant response rating, Rice: 500 g ai/ha, visual rating after 12 to 14 days
Outline: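 Plants were grown to the 1- to 4-leaf stage (2–18 cm) and then treated postemergence, or grown to the 2-leaf stage for the flooded paddy test. They were held in a greenhouse for 12 to 14 days and then scored by eye against controls, where 0 is no effect and 100 is complete control.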

ducksalad = test: Test C flooded paddy test; assay type: in vivo, Heteranthera limosa; details: for Plant response rating, Ducksalad: 500 g ai/ha, visual rating after 12 to 14 days
barnyardgrass = test: Test C flooded paddy test; assay type: in vivo, Echinochloa crus-galli; details: for Plant response rating, Barnyardgrass: 500 g ai/ha, visual rating after 12 to 14 days
Outline: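 Greenhouse test with a 12–14 day hold after application and visual comparison with controls. Emerged plants were 1- to 4-leaf stage (2–18 cm) when sprayed postemergence, and the paddy barnyardgrass was at 2 leaves under flooded conditions. 100 = complete control.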

[2] = 62 g ai/ha, preemergence, scale 0 to 100, 0 no effect, 100 complete control
[3] = 250 g ai/ha, scale 0-100, preemergence
[4] = 125 g ai/ha, scale 0 (no effect) to 100 (complete control), visual, 12 to 14 days
[5] = 500 g ai/ha, scale 0 to 100 (0 no effect, 100 complete control), visual, 12 to 14 days
[6] = 125 g ai/ha, scale 0 to 100 (0 no effect, 100 complete control)
[7] = 250 g ai/ha, scale of 0 to 100, 0 is no effect, 100 is complete control
[8] = scale 0 to 100 (0 no effect, 100 complete control)
[9] = 62 g ai/ha, scale 0 to 100 (0 no effect, 100 complete control)

SMILES	Plant response rating, Bermudagrass (bermudagrass; [2])	Plant response rating, Bermudagrass (bermudagrass; [3])	Plant response rating, Crabgrass, Large (large crabgrass; 62 g ai/ha, scale 0 to 100)	Plant response rating, Crabgrass, Large (large crabgrass; 250 g ai/ha, scale 0-100)	Plant response rating, Crabgrass, Large (large crabgrass; [5])	Plant response rating, Foxtail, Giant (giant foxtail; 62 g ai/ha, scale 0 to 100)	Plant response rating, Foxtail, Giant (giant foxtail; 250 g ai/ha, scale 0-100)	Plant response rating, Foxtail, Giant (giant foxtail; [5])	Plant response rating, Kochia (kochia; 62 g ai/ha, scale 0 to 100)	Plant response rating, Kochia (kochia; 250 g ai/ha, scale 0-100)	Plant response rating, Kochia (kochia; [5])	Plant response rating, Lambsquarters (lambsquarters; 62 g ai/ha, scale 0 to 100)	Plant response rating, Lambsquarters (lambsquarters; 250 g ai/ha, scale 0-100)	Plant response rating, Lambsquarters (lambsquarters; [5])	Plant response rating, Soybean (soybean; 62 g ai/ha, scale 0 to 100)	Plant response rating, Soybean (soybean; 250 g ai/ha, scale 0-100)	Plant response rating, Soybean (soybean; [5])	Plant response rating, Sunflower ([1]; 62 g ai/ha, scale 0 to 100)	Plant response rating, Sunflower ([1]; 250 g ai/ha, scale 0-100)	Plant response rating, Sunflower [1, 5]	also measured
CCN(C)C(=O)c1ccc(F)c(NC(=O)C2CC(C(C)(C)C)=NN2CC)c1 (racemic) [Compound 307]	90	100	80	100	100	70	100	100	100	100	100	100	100	100	40	80	100	0	60	60	Plant response rating, Bermudagrass (bermudagrass; 125 g ai/ha, scale 0 (no effect) to 100 (complete control), visual, 12 to 14 days, preemergence): 100; Bermudagrass plant response rating (bermudagrass; Preemergence, 500 g ai/ha, scale 0 to 100, 0 no effect, 100 complete control): 100; Plant response rating, Crabgrass, Large (large crabgrass; [4]): 100; Plant response rating, Foxtail, Giant (giant foxtail; [4]): 85; Plant response rating, Kochia (kochia; [4]): 100; Plant response rating, Lambsquarters (lambsquarters; [4]): 100; Rice plant response rating (rice; 62 g ai/ha, scale 0 to 100): 55; Rice plant response rating (rice; [6]): 60; Rice plant response rating (rice; [7]): 65; Plant response rating, Rice (rice; [8]): 80; Ducksalad plant response rating (ducksalad; 62 g ai/ha, scale 0 to 100): 60; Ducksalad plant response rating (ducksalad; [6]): 70; Ducksalad plant response rating (ducksalad; [7]): 90; Plant response rating, Ducksalad (ducksalad; [8]): 90; Barnyardgrass plant response rating (barnyardgrass; [9]): 30; Barnyardgrass plant response rating (barnyardgrass; [6]): 65; Barnyardgrass plant response rating (barnyardgrass; [7]): 80; Plant response rating, Barnyardgrass (barnyardgrass; [8]): 95
CCC1=NN(C(C)(C)C)CC1C(=O)Nc1cc(C(=O)N(C)C)ccc1F (racemic) [Compound 343]	60	90	50	80	100	40	70	80	90	100	100	100	100	100	40	100	100	10	80	100	Plant response rating (0 = no effect, 100 = complete control), Bermudagrass (bermudagrass; 125 g ai/ha, preemergence): 70; Plant response rating, Bermudagrass (bermudagrass; 500 g ai/ha, scale 0 to 100 (0 no effect, 100 complete control), visual, 12 to 14 days, preemergence): 90; Plant response rating (0 = no effect, 100 = complete control), Crabgrass, Large (large crabgrass; 125 g ai/ha): 80; Plant response rating (0 = no effect, 100 = complete control), Foxtail, Giant (giant foxtail; 125 g ai/ha): 50; Plant response rating (0 = no effect, 100 = complete control), Kochia (kochia; 125 g ai/ha): 100; Plant response rating (0 = no effect, 100 = complete control), Lambsquarters (lambsquarters; 125 g ai/ha): 100; Plant response rating (0 = no effect, 100 = complete control), Soybean (soybean; 125 g ai/ha): 80; Plant response rating (0 = no effect, 100 = complete control), Sunflower ([1]; 125 g ai/ha): 75; Rice plant response rating (rice; 62 g ai/ha, scale 0 to 100): 20; Rice plant response rating (rice; [6]): 50; Rice plant response rating (rice; [7]): 70; Plant response rating, Rice (rice; [8]): 80; Ducksalad plant response rating (ducksalad; 62 g ai/ha, scale 0 to 100): 40; Ducksalad plant response rating (ducksalad; [6]): 80; Ducksalad plant response rating (ducksalad; [7]): 90; Plant response rating, Ducksalad (ducksalad; [8]): 90; Barnyardgrass plant response rating (barnyardgrass; [9]): 20; Barnyardgrass plant response rating (barnyardgrass; [6]): 20; Barnyardgrass plant response rating (barnyardgrass; [7]): 60; Plant response rating, Barnyardgrass (barnyardgrass; [8]): 80

— US20060069132A1, “Azolecarboxamide herbicides” (priority 2004, published 2006)
